Experimental data taken from ChEMBL document CHEMBL5260850, “The exploration of aza-quinolines as hematopoietic prostaglandin D synthase (H-PGDS) inhibitors with low brain exposure” (Bioorg Med Chem, 2020).

What was measured:
[1] = Clearance in mouse at 1 mg/kg, iv; type: ADME, organism-based; details: in vivo
Mus musculus = assay: Anti-inflammatory activity against mdx mouse assessed as inhibition of muscle function loss by measuring functional recovery of injured limb muscles at 0.1 to 10 mg/kg, po administered 10 mins prior to unilateral eccentric contraction and QD for 43 days thereafter; parameters: scale not given: the % may be the effect or the level left; details: dose 0.1-10 mg/kg, time 43 day

SMILES: CC(C)(O)[C@H]1CC[C@H](NC(=O)c2cnc3nc(C4CC4)ccc3c2)CC1
- clearance [1]: 9 mL/min/kg
- Activity (Mus musculus): 90%
